- melting point: 195 to 196 °C (dec.)
Structure (SMILES): Cc1ccccc1Nc1nc2ccc(CC(=O)Nc3ccc(C(C)CC(=O)O)nc3)cc2o1 (racemic) [Example 1, (3RS)-3-{5-[2-(2-o-Tolylamino-benzoxazol-6-yl)-acetylamino]-pyrid-2-yl}-butyric acid]

Source: patent US6706738B2, “Substituted bicyclic heteroaryl compounds and their use as integrin antagonists” (Aventis Pharma Limited, priority 1999, dated 2004)
